This note sets out measurements from patent US20120225889A1, “USE OF MACROCYCLIC LACTONE DERIVATIVES FOR THE TREATMENT OF INFLAMMATORY DISORDERS” (PIRAMAL LIFE SCIENCES LIMITED, priority 2010, published 2012).

Experiment [1] relates to TNF-α. In words: Screening in LPS stimulated THP-1 cells: TNF-α. In kind it is cell-based. To be noted: Homo sapiens, 24 h, ELISA. The method, then: (§1) IL-6 (BD Biosciences, USA) production by LPS (Escherchia coli 0127:B8, Sigma, USA) in THP-1 cells (ATCC number: TIB202) was designed as in reference, Journal of Immunology, 151, 5631-5638, (1993), the disclosure of which is incorporated by reference for the teaching of the assay.
(§2) THP-1 cells were cultured in RPMI 1640 culture medium (Gibco BRL, UK) containing 100 U/mL penicillin and […] streptomycin, (100× solution, Sigma, USA) containing 10% FBS (JRH Biosciences, USA). 25,000 cells were seeded per well in 96-well plate (Nunc, USA). The cells were differentiated with PMA (Sigma, USA, prepared as 100 μg/mL stock in RPMI and was diluted to 5 ng/mL). The test compound (prepared as 20 mM stock in DMSO and diluted with DMSO to achieve the following final concentrations in the assay: 100, 10, 1, 0.1, 0.01, 0.001 and 0.0001 μM) or vehicle (0.5% DMSO) were added to the cells and the cells were incubated for 30 min at 37° C. LPS (Sigma, USA, prepared as 1 mg/mL stock in PBS) was added to achieve a final concentration of 1 μg/mL. Plates were incubated at 37° C. for 24 h at 5% CO2. Supernatants were harvested, and assayed for TNF-α and IL-6 by ELISA as described by the manufacturer (BD Biosciences, USA). Percent inhibition of cytokine release compared to the control was calculated. The IC50 values were calculated by a nonlinear regression method.

Experiment [2] relates to IL-6. Kind of experiment: Screening in LPS stimulated THP-1 cells: IL-6. The experiment is classed as cell-based. The settings on record: Homo sapiens, 24 h, ELISA. Here is the method:
as §1, §2

Experiment [3] concerns TNF-α. In words: Cytokine release assay in hPBMCs: TNF-α. To be noted: Homo sapiens; Table 3: PHA-PMA induced hPBMC's, 48 h; read-out: TNF-α IC50. The experiment is classed as cell-based. Here is the method:
(§3) hPBMCs were obtained from healthy donors by centrifugation of heparinized venous blood over Ficoll/Hypaque solution (Histopaque-1077, Sigma, USA). Isolated hPBMCs were suspended in RPMI 1640 culture medium supplemented with 10% FBS and seeded at a density of 50,000 cells/well in a 96-well plate (Nunc, USA). The cells were incubated at 37° C., 5% CO2 for a period of 24 h. These cells were used for the lymphocyte proliferation as well as cytokine release assay.
(§4) The plated cells were treated with different concentrations of the test compound (prepared as mM stock in DMSO and diluted with DMSO to achieve the following final concentrations in the assay: 100, 10, 1, 0.1, 0.01, 0.001, 0.0001, 0.00001 and 0.000001 μM) and incubated for 30 min. The cells were then stimulated with PHA (prepared as 1 mg/mL stock in RPMI 1640 culture medium and used at a final concentration of 5 μg/mL). FK506 was used as a standard. The plates were incubated at 37° C., 5% CO2 for 48 h. The cytokines in the supernatant collected were detected using ELISA kit (BD biosciences, USA). The cytokines evaluated in the assay were TNF-α, IL-2, IL-6, and IFN-γ.

In experiment [4] the test system is IL-2. Kind of experiment: Cytokine release assay in hPBMCs: IL-2. To be noted: Homo sapiens; Table 3: PHA-PMA induced hPBMC's, 48 h; read-out: IL-2 IC50. In kind it is cell-based. Here is the method:
as §3, §4

Experiment [5] has as its system IL-6. Kind of experiment: Cytokine release assay in hPBMCs: IL-6. The experiment is classed as cell-based. To be noted: Homo sapiens; Table 3: PHA-PMA induced hPBMC's, 48 h; read-out: IL-6 IC50. The method, then:
as §3, §4

Experiment [6] deals with IFN-γ. In words: Cytokine release assay in hPBMCs: IFN-γ. The settings on record: Homo sapiens; Table 3: PHA-PMA induced hPBMC's, 48 h; read-out: IFN-γ IC50. In kind it is cell-based. The method, then: as §3, §4
Experiment [7] relates to IL-6. In words: Human monocyte assay (LPS-induced): IL-6. The experiment is classed as cell-based. The settings on record: LPS stimulated human monocytes, 5 h. An excerpt:
The assay was designed as in reference, Physiological Research, 52, 593-598, (2003), the disclosure of which is incorporated by reference for the teaching of the assay.
The objective of the assay is to determine whether compounds of the present invention—mediated inhibition of LPS-induced cytokines from monocytic THP-1 cell line translates to physiologically relevant human cells. Accordingly, the effect of compounds of the present invention on LPS—induced cytokine production from freshly isolated human monocytes was ascertained.
Peripheral blood was collected from healthy donors into potassium EDTA vacutainer tubes (BD Biosciences, USA). hPBMCs were isolated using density gradient separation (Histopaque-1077; Sigma, USA) and suspended in assay medium which is RPMI culture medium (Sigma, USA) containing 10% heat inactivated FBS (JRH Biosciences, Australia), 100 U/mL penicillin (Sigma, USA) and […] streptomycin (Sigma, USA). Monocytes in the hPBMCs were counted using a Coulter Counter following which the cells were resuspended at 2×10^5 monocytes/mL of assay medium. A cell suspension containing 2×10^4 monocytes was aliquoted per well of a 96-well plate (Nunc, USA). Subsequently, the hPBMCs were incubated for 4-5 h at 37° C., 5% CO2. During the incubation, the monocytes adhered to the bottom of 96-well plate. Following the incubation, the non-adherent lymphocytes were washed and assay medium was added to adherent monocytes. After 48 h of incubation at 37° C., 5% CO2, monocytes were pre-treated with various concentrations of test compound (prepared as 20 mM stock in DMSO; 1 μL of […] concentrated solution of test compound was dissolved in 200 μL cell suspension to achieve a final concentration of 0.03, 0.1, 0.3, 1, 3, 10, 30 and 100 μM) or vehicle (0.5% DMSO) or 10 μM dexamethasone (standard IL-6 and TNF-α inhibitor, Sigma, USA) for 30 min at 37° C., 5% CO2 and stimulated with 1 μg/mL LPS (Escherchia coli 0111:B4, Sigma, USA). The cells were then incubated for 5 h at 37° C., 5% CO2 following which supernatants were collected, stored at −70° C. and were assayed later for IL-6, and TNF-α by ELISA (OptiEIA ELISA sets, BD Biosciences, USA). The IC50 values were calculated by a nonlinear regression method using Graph Pad software (Prism 3.03).

Experiment [8] has as its system DBA/1J mice with collagen induced arthritis. Kind of experiment: Collagen-induced arthritis in mice. In kind it is in vivo. To be noted: compound of example 7 5 mg/kg, s.c., n=10; Enbrel 3 mg/kg, s.c., n=6; vehicle control 15.14+1.0. Here is the method:
The experiment was designed as in reference, J. Experimental Medicine, 162, 637-646 (1985), the disclosure of which is incorporated by reference for the teaching of the experiment.
Male DBA/1J mice with body weight range of 18-22 g, aged 8-10 weeks were immunized with an emulsion equivalent to 200 μg of type II collagen (Elastin products, USA) in Freund's Complete Adjuvant (Sigma, USA), injected intradermally at the base of the tail. The animals were boosted with 200 μg of freshly prepared typeII collagen emulsion emulsified in Freund's Complete Adjuant (Sigma, USA) on day 21. A group of naïve mice was also maintained alongside. Naïve animals are the animals which are neither immunized for induction of arthritis nor do they receive any treatment. This group is maintained to take care of the normal changes in the paw thickness with age.
From day 23, mice were examined daily once for the signs of rheumatoid arthritis, using the articular index and paw thickness as parameters. Articular index scoring was performed employing the following criteria:
• 0: No redness or swelling • 1: Redness, but no swelling • 2: Redness and swelling of the paw • 3: Redness and severe swelling of the paw Hind limbs: Scale 0-4 • 0: No redness or swelling • 1: Redness and mild swelling of paw • 2: Redness and moderate swelling of paw and/or swelling of at least one of the digits • 3: Redness and moderate/severe swelling of paw, swelling of ankle joint and/or swelling of one or more digits • 4: Redness and severe swelling of paw, digits and ankle joint, with joint stiffness Mice with a minimum hind paw score of 2, of even one paw, were inducted into the study. Mice were randomized into the various study groups, each group having at least eight animals, and were administered the vehicle (0.5% CMC, 10 mL/kg p.o. and s.c. twice daily), the test compound (5 mg/kg, p.o. and s.c., twice daily) and standard compound Enbrel (Wyeth Limited, UK), 3 mg/kg, s.c., once daily. The test compound was administered as a suspension in CMC. The requisite quantity of the compound was accurately weighed and was hand-pulverized using pestle-mortar. After mixing with minimum quantity of Tween 80 necessary to wet the compound, requisite quantity of 0.5% CMC solution was added and the compound was ground with CMC till the uniform suspension was obtained. Standard compound ‘Enbrel’ was used as an aqueous solution. The dosing of the compounds was done for 12 continuous days.
The following parameters were observed and recorded daily, • 1. Body weight • 2. Articular index • 3. Paw thickness of hind limbs only, in mm using a tension free calipers • 4. Any significant observation regarding the condition of the animals.
On 13th day morning, 1 h after the compound treatment, the animals were sacrificed, blood withdrawn, and plasma collected for drug level analyses. Also, the hind limbs of all the animals were preserved for histopathological evaluations.

In general, IC50 refers to the concentration needed to halve the response being measured. For the compound `C/C=C/C(O)C(C)/C=C/C(=NOCC(=O)O)C(C)C(O)C(C)C1OC(=O)/C(OC)=C/C(C)=C/C(C)C(O)C(CC)C(O)C(C)C/C(C)=C/C=C/C1OC` (stereo in doubt) [Compound of example 10, ((Z)-((6E,10E)-2-((4E,6E,14E,16Z)-11-Ethyl-10,12-dihydroxy-3,17-dimethoxy-7,9,13,15-tetramethyl-18-oxooxacyclooctadeca-4,6,14,16-tetraen-2-yl)-3,9-dihydroxy-4,8-dimethyldodeca-6,10-dien-5-ylidene)aminooxy)acetic acid], the half-maximal inhibitory concentration (IC50) is more than 30000 nM in experiment [1]; 2300 nM in experiment [2]; 200 nM in experiment [3]; 200 nM in experiment [4]; 20 nM in experiment [5]; 2000 nM in experiment [6].
Take `C/C=C/C(O)C(C)/C=C/C(=NOCC(=O)N1CCN(C)CC1)C(C)C(O)C(C)C1OC(=O)/C(OC)=C/C(C)=C/C(C)C(O)C(CC)C(O)C(C)C/C(C)=C/C=C/C1OC` (stereo in doubt) [Compound of example 11, (3Z,5E,13E,15E)-18-((5Z,6E,10E)-3,9-Dihydroxy-4,8-dimethyl-5-(2-(4-methylpiperazin-1-yl)-2-oxoethoxyimino)dodeca-6,10-dien-2-yl)-9-ethyl-8,10-dihydroxy-3,17-dimethoxy-5,7,11,13-tetramethyloxacyclooctadeca-3,5,13,15-tetraen-2-one]: the IC50 in experiment [1] is more than 30000 nM; in experiment [2], 300 nM; in experiment [3], 50 nM; in experiment [4], 50 nM; in experiment [5], 10 nM; in experiment [6], 5000 nM. For the same compound, the IC50 in experiment [7] is more than 10000 nM.
For `C/C=C/C(O)C(C)/C=C/C(=NOCC(=O)N1CCCCC1)C(C)C(O)C(C)C1OC(=O)/C(OC)=C/C(C)=C/C(C)C(O)C(CC)C(O)C(C)C/C(C)=C/C=C/C1OC` (stereo in doubt) [Compound of example 13, (3Z,5E,13E,15E)-18-((5Z,6E,10E)-3,9-Dihydroxy-4,8-dimethyl-5-(2-oxo-2-(piperidin-1-yl)ethoxyimino)dodeca-6,10-dien-2-yl)-9-ethyl-8,10-dihydroxy-3,17-dimethoxy-5,7,11,13-tetramethyloxacyclooctadeca-3,5,13,15-tetraen-2-one], the concentration for half-maximal inhibition (IC50) is more than 30000 nM in experiment [1]; 200 nM in experiment [2]; 20 nM in experiment [3]; 200 nM in experiment [4]; 500 nM in experiment [5]; 10000 nM in experiment [6]. The same compound registered a half-inhibitory concentration (IC50) in experiment [7] of 1400 nM.
As for `C/C=C/C(O)C(C)/C=C/C(=NOCC(=O)N1CCC(N2CCCCC2)CC1)C(C)C(O)C(C)C1OC(=O)/C(OC)=C/C(C)=C/C(C)C(O)C(CC)C(O)C(C)C/C(C)=C/C=C/C1OC` (stereo in doubt) [Compound of example 14, (3Z,5E,13E,15E)-18-((5Z,6E,10E)-5-(2-(1,4′-Bipiperidin-1′-yl)-2-oxoethoxyimino)-3,9-dihydroxy-4,8-dimethyldodeca-6,10-dien-2-yl)-9-ethyl-8,10-dihydroxy-3,17-dimethoxy-5,7,11,13-tetramethyloxacyclooctadeca-3,5,13,15-tetraen-2-one], the IC50 in experiment [1] was 18000 nM; in experiment [2], 130 nM; in experiment [3], 20 nM; in experiment [4], 5 nM; in experiment [5], 10 nM; in experiment [6] it was 20 nM. This compound showed a concentration for half-maximal inhibition (IC50) in experiment [7] of 150 nM.
Take `C/C=C/C(O)C(C)/C=C/C(=O)NC(C)C(O)C(C)C1OC(=O)/C(OC)=C/C(C)=C/C(C)C(O)C(CC)C(O)C(C)C/C(C)=C/C=C/C1OC` (stereo not drawn) [Compound of example 16, (2E,6E)-N-(4-((4E,6E,14E,16Z)-11-Ethyl-10,12-dihydroxy-3,17-dimethoxy-7,9,13,15-tetramethyl-18-oxooxacyclooctadeca-4,6,14,16-tetraen-2-yl)-3-hydroxypentan-2-yl)-5-hydroxy-4-methylocta-2,6-dienamide]: the IC50 in experiment [1] is more than 100000 nM; in experiment [2] it was 30 nM.
Turning to Enbrel, in experiment [8], the “Histological score of the section of paws” value is 5.8+0.95.
